# Target: histone deacetylase activity (HeLa nuclear extract)
# Assay: HDAC fluorescent activity assay (Biomol Fluor de Lys), HeLa nuclear extract
# Type: biochemical
# Details: HeLa nuclear extract as HDAC source; Fluor de Lys substrate; IC50 range; read-out: Inhibitor Activity versus HDAC
# Procedure: The ability of compounds of Examples 1 to 17 to inhibit histone deacetylase activities was measured using the commercially available HDAC fluorescent activity assay from Biomol. In brief, the Fluor de Lys™ substrate, a lysine with an epsilon-amino acetylation, is incubated with the source of histone deacetylase activity (HeLa nuclear extract) in the presence or absence of inhibitor. Deacetylation of the substrate sensitises the substrate to Fluor de Lys™ developer, which generates a fluorophore. Thus, incubation of the substrate with a source of HDAC activity results in an increase in signal that is diminished in the presence of an HDAC inhibitor.
# Data are expressed as a percentage of the control, measured in the absence of inhibitor, with background signal being subtracted from all samples, as follows:— % activity=((S^i−B)/(S^o−B))×100 where S^i is the signal in the presence of substrate, enzyme and inhibitor, S^o is the signal in the presence of substrate, enzyme and the vehicle in which the inhibitor is dissolved, and B is the background signal measured in the absence of enzyme.
# IC50 values were determined by non-linear regression analysis, after fitting the results of eight data points to the equation for sigmoidal dose response with variable slope (% activity against log concentration of compound), using Graphpad Prism software.
# Histone deacetylase activity from crude nuclear extract derived from HeLa cells was used for screening. The preparation, purchased from 4C (Seneffe, Belgium), was prepared from HeLa cells harvested whilst in exponential growth phase. The nuclear extract is prepared according to Dignam J D 1983 Nucl. Acid. Res. 11, 1475-1489, snap frozen in liquid nitrogen and stored at −80° C. The final buffer composition was 20 mM Hepes, 100 mM KCl, 0.2 mM EDTA, 0.5 mM DTT, 0.2 mM PMSF and 20% (v/v) glycerol.
row,IC50,Compound
1,330 to 1000 nM,COC(=O)[C@H]1Cc2c([nH]c3ccccc23)CN1C(=O)CCCCCC(=O)NO [Example 11]
2,< 330 nM,O=C(CCCCCCC(=O)N1Cc2[nH]c3ccccc3c2C[C@@H]1C(=O)O)NO [Example 16]
3,330 to 1000 nM,COC(=O)[C@H]1Cc2c([nH]c3ccccc23)CN1C(=O)CCCCCCCC(=O)NO [Example 12]
4,330 to 1000 nM,O=C(CCCCCC(=O)N1CCc2c([nH]c3ccccc23)C1C(F)(F)F)NO (stereo not shown) [Example 8]
5,330 to 1000 nM,O=C(CCCCCC(=O)N1Cc2[nH]c3ccccc3c2C[C@@H]1C(=O)O)NO [Example 15]
6,330 to 1000 nM,O=C(CCCCCCCC(=O)N1Cc2[nH]c3ccccc3c2C[C@@H]1C(=O)O)NO [Example 17]
7,< 330 nM,COc1ccc2[nH]c3c(c2c1)CCN(C(=O)CCCCCC(=O)NO)C3 [Example 6]
8,< 330 nM,O=C(CCCCCCC(=O)N1CCc2c([nH]c3ccccc23)C1C(F)(F)F)NO (stereo not shown) [Example 9]
9,< 330 nM,O=C(CCCCCCC(=O)N1CCc2c([nH]c3ccccc23)C12CCCCC2)NO [Example 14]
10,< 330 nM,COc1ccc2[nH]c3c(c2c1)CCN(C(=O)CCCCCCC(=O)NO)C3 [Example 3]
11,< 330 nM,O=C(CCCCCCCC(=O)N1CCc2c([nH]c3ccccc23)C1C(F)(F)F)NO (stereo not shown) [Example 10]
12,< 330 nM,COC(=O)[C@H]1Cc2c([nH]c3ccccc23)CN1C(=O)CCCCCCC(=O)NO [Example 4]
13,330 to 1000 nM,O=C(CCCCCC(=O)N1CCc2c([nH]c3ccccc23)C12CCCCC2)NO [Example 13]
14,< 330 nM,COc1ccc2[nH]c3c(c2c1)CCN(C(=O)CCCCCCCC(=O)NO)C3 [Example 7]
15,< 330 nM,O=C(CCCCCC(=O)N1CCc2c([nH]c3ccccc23)C1)NO [Example 2]
16,< 330 nM,O=C(CCCCCCCC(=O)N1CCc2c([nH]c3ccccc23)C1)NO [Example 5]
